Experimental data reported in patent US10246711B2, “RNAi inhibitors of glucose-6-phosphate dehydrogenase for treating cardiovascular and pulmonary conditions” (priority 2016, dated 2019).

How the values were obtained:
Type in all cases: cell-based
G6PD protein = experiment: Western blot of G6PD protein in hypoxic rat pulmonary artery smooth muscle cells; details: rat PASMC; 50 ng and 100 ng; hypoxia (1% O2) 72 hr; compared to untransfected (UT), non-targeting (NT) and G6PD-siRNA#1; FIG. 4A
Procedure: (§1) FIGS. 4A-4B are blots showing rat pulmonary artery smooth muscle cells that were cultured in 15% DMEM for 48 hr and transfected with G6PD-siRNA#1 and G6PD-siRNA#2, respectively (0.5 and 1.0 μl=50 ng and 100 ng, respectively). The cells were then subjected to hypoxia (1% 02) for 72 hr. Expression of G6PD protein was estimated using western blot analyses. UT=Untransfected; NT=non-targeting/scrambled sequence (FIG. 4A). Beta-Actin (ACTB) was used as loading control. FIG. 4B are blots showing the effect of G6PD-siRNA#2 treatment, on the expression of G6PD (FIG. 4B-panel 2), polymerase delta (FIG. 4B-panel 3), cyclin E1 (FIG. 4B-panel 4), and cyclin B (FIG. 4B-panel 5), under normoxic and hypoxic conditions, in these cells were determined using Western blot analyses. GAPDH was used as a loading control.
(§2) In FIGS. 4A-B, rat pulmonary artery smooth muscle cells were cultured in 15% DMEM for 48 hr. Cells were then transfected with G6PD-siRNA#1 and G6PD-siRNA#2, respectively (0.5 and 1.0 μl=50 ng and 100 ng, respectively) and subjected to hypoxia (1% 02) for 72 hr. […] GAPDH was used as a loading control.

[1] = system: polymerase delta, cyclin E1, cyclin B1; experiment: Western blot of replication and cell cycle proteins in rat pulmonary artery smooth muscle cells; details: rat PASMC, normoxic and hypoxic conditions
Procedure: as §1, §2

G6PD = G6PD knockdown by G6PD-specific siRNA sequence (preliminary results); details: based on preliminary results
Procedure: PASM cells cultured in a 12-well plate were transfected for 72 h with 100 nmol/1 shRNA targeting G6PD using lipid-based and nano-particle based transfection system. Control experiments were performed using a nontargeting/scrambled (NT) shRNA (negative control).

G6PD-siRNA#2: Sense (SEQ ID NO. 6) 5′ CGACGAAGCGCAGACAGCGUC 3′; Antisense (SEQ ID NO. 7) 5′GACGCUGUCUGCGCUUCGUCG3′ (listed as RNA, chemistry not given here)
G6PD protein expression (G6PD protein): significantly down-regulated
expression of polymerase delta ([1]; FIG. 4B-panel 3): significantly down-regulated
expression of cyclin E1 ([1]; FIG. 4B-panel 4): significantly down-regulated
expression of cyclin B1 ([1]; FIG. 4B-panel 5): significantly down-regulated

SEQ ID NO: 2: G6PD-specific siRNA gene sequence CAACAUCGCCUGCGUUAUC; nucleotide positions 922-940 of SEQ ID NO. 1 (expressed or natural sequence)
downregulation of G6PD (G6PD): specifically and efficaciously downregulated G6PD
